From patent US12310941B2, “Agent for protection of blood brain spinal cord barrier” (National University Corporation Hokkaido University, priority 2020, dated 2025)

Assays:
[1] = tested on: Human brain vascular endothelial cells (hCMEC/D3); assay: Cell viability of human brain vascular endothelial cells under hydrogen peroxide stress; type: cell-based; settings: 450 μM hydrogen peroxide, 6 hours; PrestoBlue; stressed cells without test compound about 0.2; FIG. 17
Procedure: Human brain vascular endothelial cells (hCMEC/D3, Sigma) were seeded to 5,000 cells/cm^2 on a 96-well plate (Falcon cell culture 96-well multi-well plate, with flat bottom lid) coated with 0.1 mg/ml collagen type 1 (Sigma-Aldrich), and cultured at 37° C. for 24 hours with 5% CO2 using Endothelial Cell Growth Medium (PromoCell, Germany). Bismuth citrate, bismuth subnitrate, bismuth tartrate, or zinc sulfate dissolved in saline, and hydrogen peroxide at a final concentration of 450 μM were added to the medium and incubated for 6 hours to simultaneously stress the cells and treat them with test compounds. The cell viability after loading stress was measured using PrestoBlue (registered trademark) Cell Viability Reagent (Life Technologies).
The cell viability is illustrated in FIG. 17 when the cell viability of the control without hydrogen peroxide stress is 1 and the cell-free is 0. […] Note that the survival rate of the cells subjected to hydrogen peroxide stress and not added the test compound was about 0.2.

[2] = tested on: spinal cord crush injury rats; assay: Sensory function evaluation (pain stimulus response time) in spinal cord crush injury model; type: in vivo, Lewis rats; settings: single i.p. dose 500 mg/kg immediately after C5 crush injury; vs vehicle; FIG. 13
Procedure: Crush injuries were created in the fifth cervical cord (C5) of Lewis rats (female, 8 to 14 weeks old, n=14 to 18/group) under anesthesia by applying a pressure of 200 kdyn using an IH impactor. For seven consecutive days from the day of injury creation, 380 to 420 μL of the test compound dissolved in saline or DMSO, or vehicle was intraperitoneally administered. The daily doses were 20 mg/kg body weight of papaverine, 1 mg/kg body weight of mubritinib, and 1 mg/kg body weight of brexpiprazole. After the rats were kept for 8 weeks from injury creation, histological evaluation and sensory function evaluation for pathological conditions at the chronic stage of the spinal cord injury were performed. […] Immediately after creating crush injuries in the fifth cervical cord (C5) of Lewis rats (female, 8 to 14 weeks old, n=8/group) under anesthesia in the same manner as in Example 4, 500 mg/kg of bismuth subnitrate dissolved in saline, or vehicle (saline) was intraperitoneally administered. After the rats were kept for 8 weeks from injury creation, histological evaluation and sensory function evaluation were performed for pathological conditions at the chronic stage of the spinal cord injury.

[3] = tested on: cerebral cortex injury mice; assay: IgG leakage in cerebral cortex injury model; type: in vivo, C57BL/6 mice; settings: i.p. day before and on day of injury; bismuth subnitrate 500, papaverine 20 mg/kg; vs vehicle; FIG. 16
Procedure: Protection of the BBSCB function in traumatic brain injury by papaverine, mubritinib, brexpiprazole, and bismuth subnitrate was evaluated by observing suppression of IgG leakage from the injured site using the following method. C57BL/6 mice (male, 8 to 13 weeks old, n=3 to 4/group) were intraperitoneally administered 200 μL of the test compound dissolved in saline or DMSO, or vehicle. The doses were 20 mg/kg body weight of papaverine, 1 mg/kg body weight of mubritinib, 1 mg/kg body weight of brexpiprazole, and 500 mg/kg body weight of bismuth subnitrate. On the next day after administration, injuries were created in the left cerebral hemisphere cortex of the mice under anesthesia by a wire-knife transection method. The mice were immobilized in a stereotaxic frame, and the left lateral 1 mm portion from the bregma of the cranial bone was opened with a microdrill. A wire-knife was inserted into the lateral 1.0 mm from the bregma and 0.5 mm deep in the left cerebral hemisphere, and the wire was extended caudally and pulled up to create the injury. […] For evaluation of the IgG-stained area, taken images were binarized into black and white using Photoshop CS3 (Adobe, CA, USA), and then quantified using Image J (Schneider et al., 2012). […] All quantitative evaluations were performed with the slides blinded. […]

[4] = tested on: spinal cord crush injury rats; assay: Walking function analysis (DigiGait) in spinal cord crush injury model; type: in vivo, Lewis rats; settings: single i.p. dose 500 mg/kg, 8 weeks after injury
Procedure: Immediately after creating crush injuries in the fifth cervical cord (C5) of Lewis rats (female, 8 to 14 weeks old, n=8/group) under anesthesia in the same manner as in Example 4, 500 mg/kg of bismuth subnitrate dissolved in saline, or vehicle (saline) was intraperitoneally administered. After the rats were kept for 8 weeks from injury creation, histological evaluation and sensory function evaluation were performed for pathological conditions at the chronic stage of the spinal cord injury.
The ground contacting area (the Paw Area) of each leg and the maximum possible walking speed were measured in rats before and 8 weeks after spinal cord injury creation using the DigiGait walking analysis system for small animals (Bioresearch Center Co., Ltd.) according to the manual. […] All rats before spinal cord injury creation were able to walk at a treadmill speed of 20 cm/sec. In the vehicle-administered group, the number of rats that were able to walk at a speed of 15 cm/sec or faster decreased to two individuals, whereas in the bismuth subnitrate-administered group, 6 individuals were able to walk at a speed of 15 cm/sec or faster (FIG. 15).

[5] = tested on: spinal cord crush injury rats; assay: Histological evaluation in spinal cord crush injury model; type: in vivo, Lewis rats; settings: 8 weeks after injury, vs vehicle; for reactive astrocyte area (GFAP positive area): FIG. 6
Procedure: Crush injuries were created in the fifth cervical cord (C5) of Lewis rats (female, 8 to 14 weeks old, n=14 to 18/group) under anesthesia by applying a pressure of 200 kdyn using an IH impactor. For seven consecutive days from the day of injury creation, 380 to 420 μL of the test compound dissolved in saline or DMSO, or vehicle was intraperitoneally administered. The daily doses were 20 mg/kg body weight of papaverine, 1 mg/kg body weight of mubritinib, and 1 mg/kg body weight of brexpiprazole. After the rats were kept for 8 weeks from injury creation, histological evaluation and sensory function evaluation for pathological conditions at the chronic stage of the spinal cord injury were performed. After perfusion and fixation of the rats in the same manner as in Example 3, the 2 cm long spinal cord centering the injury site was dissected. The dissected spinal cords were immersed in PBS containing 30% sucrose for overnight and then transected horizontally to prepare frozen sections having a thickness of 30 μm. After washing the sections with TBS, blocking was performed in a blocking buffer (TBS containing 5% normal horse serum and 0.25% Triton X-100) for 1 hour at room temperature. After washing with PBS, the sections were reacted with a primary antibody at 4° C. overnight. As the primary antibody, purified anti-Glial Fibrillary Acidic Protein (GFAP) Antibody (Biolegend) and Anti-NeuN Antibody, clone A60 (Millipore) were diluted with TBS containing 5% normal horse serum and 0.25% Triton X-100 at 1:1000 and at 1:500, respectively, and used. After washing with TBS, the sections were reacted with a secondary antibody at room temperature for 3 hours. As the secondary antibody, both Alexa Fluor 594 donkey anti-mouse IgG (Jackson ImmunoResearch) and Alexa Fluor 594 donkey anti-chicken IgG (Jackson ImmunoResearch) were diluted with TBS containing 3% normal horse serum and 0.25% Triton X-100 at 1:500, and used. After washing with TBS, the sections were observed using BZ-X710 (KEYENCE) to obtain fluorescent images. For the section of the central part of the spinal cord of the rat, the cavity area of the injured part, the area of the region immunostained with the GFAP antibody, and the number of cells immunostained with the NeuN antibody present on the lines 1.5 mm rostal and caudal from the center of the injury were measured. GFAP is a marker for reactive astrocytes and NeuN is a marker for neurons. Immediately after creating crush injuries in the fifth cervical cord (C5) of Lewis rats (female, 8 to 14 weeks old, n=8/group) under anesthesia in the same manner as in Example 4, 500 mg/kg of bismuth subnitrate dissolved in saline, or vehicle (saline) was intraperitoneally administered. After the rats were kept for 8 weeks from injury creation, histological evaluation and sensory function evaluation were performed for pathological conditions at the chronic stage of the spinal cord injury. In the same manner as in Example 4, for the section of the central part of the spinal cord of the rat, the reactive astrocyte area, the cavity area of the injured part, and the number of remaining neurons present on the lines 1.5 mm rostal and caudal from the center of the injury were measured.

[6] = i.p. daily for 7 days from C5 crush injury, papaverine 20, mubritinib 1, brexpiprazole 1 mg/kg

| Compound | cell protective effect on hCMEC/D3 (cell viability) compared with zinc sulfate [1] | leakage of IgG from the injured site of the cerebral cortex [3] | reactive astrocyte area (GFAP positive area) [5, 6] | other results |
| --- | --- | --- | --- | --- |
| O=C([O-])CC(O)(CC(=O)[O-])C(=O)[O-].O=C([O-])CC(O)(CC(=O)[O-])C(=O)[O-].[Bi+3].[K+].[K+].[K+] [Bismuth subcitrate, bismuth subcitrate] | significantly higher | – | – | – |
| O=[N+]([O-])[O-].O=[N+]([O-])[O-].O=[N+]([O-])[O-].O=[N+]([O-])[O-].[Bi+3].[Bi+3].[Bi+3].[Bi+3].[Bi+3].[O-2].[OH-].[OH-].[OH-].[OH-].[OH-].[OH-].[OH-].[OH-].[OH-] [bismuth subnitrate] | significantly higher | significantly suppressed | – | response time of the forelimbs to pain stimulus [2]: significantly longer; number of rats able to walk at a speed of 15 cm/sec or faster ([4]; n=8/group, vehicle group two individuals, FIG. 15): 6 individuals; ground contacting area (the Paw Area) on one side ([4]; vs vehicle, FIG. 14): significantly increased; cavity area of the injured part ([5]; single i.p. dose 500 mg/kg immediately after C5 crush injury, FIG. 11): significantly reduced; number of remaining neurons, rostral side and caudal side of the injured part ([5]; single i.p. dose 500 mg/kg immediately after C5 crush injury, FIG. 12): increased both on the rostral side and the caudal side |
| bismuth tartrate | significantly higher | – | – | – |
| COc1ccc(Cc2nccc3cc(OC)c(OC)cc23)cc1OC [papaverine, 1-[(3,4-dimethoxyphenyl)methyl]-6,7-dimethoxyisoquinoline] | – | significantly suppressed | significantly reduced | cavity area of the injured part ([5]; i.p. daily for 7 days from C5 crush injury, papaverine 20, mubritinib 1, brexpiprazole 1 mg/kg, FIG. 7): significantly reduced; number of remaining neurons (NeuN-positive cells) ([5]; i.p. daily for 7 days from C5 crush injury, papaverine 20, mubritinib 1, brexpiprazole 1 mg/kg, FIG. 8): significantly increased |
| O=c1ccc2ccc(OCCCCN3CCN(c4cccc5sccc45)CC3)cc2[nH]1 [brexpiprazole, 7-[4-[4-(1-benzothiophen-4-yl)piperazin-1-yl]butoxy]-1H-quinolin-2-one] | – | – | significantly reduced | – |
